# Assay results: ChEMBL document CHEMBL5137008, “Recent advances of antitumor shikonin/alkannin derivatives: A comprehensive overview focusing on structural classification, synthetic approaches, and mechanisms of action” (Eur J Med Chem, 2022)
# Tests used:
# [1] = system: A549; assay: Antiproliferative activity against human A549 cells assessed as inhibition of cell proliferation incubated for 20 hrs by MTT assay; assay type: functional, cell-based; settings: A549, 20 h
# [2] = system: HepG2; assay: Antiproliferative activity against human HepG2 cells assessed as inhibition of cell proliferation incubated for 20 hrs by MTT assay; assay type: functional, cell-based; settings: HepG2, 20 h
# [3] = system: MCF7; assay: Antiproliferative activity against human MCF7 cells assessed as inhibition of cell proliferation incubated for 20 hrs by MTT assay; assay type: functional, cell-based; settings: MCF7, 20 h
# [4] = Antiproliferative activity against human BGC cells assessed as inhibition of cell proliferation incubated for 20 hrs by MTT assay; assay type: functional, cell-based
# [5] = system: L02; assay: Antiproliferative activity against human L02 cells assessed as inhibition of cell proliferation incubated for 20 hrs by MTT assay; assay type: functional, cell-based; settings: L02, 20 h
# [6] = system: HeLa; assay: Antiproliferative activity against human HeLa cells assessed as inhibition of cell proliferation incubated for 20 hrs by MTT assay; assay type: functional, cell-based
# [7] = system: HeLa; assay: Antiproliferative activity against human HeLa cells assessed as inhibition of cell growth incubated for 24 hrs by MTT assay; assay type: functional, cell-based
# [8] = system: MDA-MB-231; assay: Antiproliferative activity against human MDA-MB-231 cells assessed as inhibition of cell growth incubated for 24 hrs by MTT assay; assay type: functional, cell-based; settings: MDA-MB-231, 24 h
# [9] = system: SMMC-7721; assay: Anticancer activity against human SMMC-7721 cells incubated for 48 hrs by MTT assay; assay type: functional, cell-based; settings: SMMC-7721, 48 h
# [10] = system: SGC-7901; assay: Anticancer activity against human SGC-7901 cells incubated for 48 hrs by MTT assay; assay type: functional, cell-based; settings: SGC-7901, 48 h
# [11] = system: U-87 MG; assay: Anticancer activity against human U87 cells incubated for 48 hrs by MTT assay; assay type: functional, cell-based, U-87MG ATCC
# [12] = system: MGC-803; assay: Anticancer activity against human MGC-803 cells incubated for 48 hrs by MTT assay; assay type: functional, cell-based; settings: MGC-803, 48 h
# [13] = system: A549; assay: Antiproliferative activity against human A549 cells assessed as inhibition of cell growth incubated for 24 hrs by MTT assay; assay type: functional, cell-based; settings: A549, 24 h
# [14] = Cytotoxicity against human L02 cells incubated for 48 hrs by MTT assay; assay type: toxicity, cell-based
# [15] = system: A549; assay: Anticancer activity against human A549 cells; assay type: functional; settings: read-out: ED50 (the source's name)
# [16] = system: U-87 MG; assay: Anticancer activity against human U87 cells assessed as inhibition of cell proliferation incubated for 48 hrs by MTT assay; assay type: functional, cell-based, U-87MG ATCC
# [17] = system: L1210; assay: Anticancer activity against mouse L1210 cells assessed as reduction in cell viability for 72 hrs by MTT assay; assay type: functional; settings: read-out: ED50 (the source's name)
# [18] = system: SGC-7901; assay: Anticancer activity against human SGC-7901 cells assessed as inhibition of cell proliferation incubated for 48 hrs by MTT assay; assay type: functional, cell-based; settings: SGC-7901, 48 h
# [19] = system: Sarcoma-180; assay: Antitumor activity against mouse Sarcoma-180 cells xenografted in ip dosed ICR mouse assessed as tumor growth inhibition rate administered daily for 7 days relative to control; assay type: functional; settings: time 7 day
# [20] = system: SNU1; assay: Anticancer activity against human SNU1 cells assessed as reduction in cell viability for 72 hrs by MTT assay; assay type: functional, cell-based; settings: SNU1, 72 h
# [21] = system: L1210; assay: Anticancer activity against mouse L1210 cells; assay type: functional; settings: read-out: ED50 (the source's name)
# [22] = system: SMMC-7721; assay: Anticancer activity against human SMMC-7721 cells assessed as inhibition of cell proliferation incubated for 48 hrs by MTT assay; assay type: functional, cell-based; settings: SMMC-7721, 48 h
# [23] = system: MGC-803; assay: Anticancer activity against human MGC-803 cells assessed as inhibition of cell proliferation incubated for 48 hrs by MTT assay; assay type: functional, cell-based; settings: MGC-803, 48 h
# [24] = system: HeLa; assay: cells; settings: Homo sapiens, 24 h
# [25] = Anticancer activity against human A875 cells assessed as inhibition of cell growth incubated for 24 hrs by MTT assay; assay type: functional, cell-based; settings: A875, 24 h
# [26] = system: HepG2; assay: Anticancer activity against human HepG2 cells assessed as inhibition of cell growth incubated for 24 hrs by MTT assay; assay type: functional, cell-based; settings: HepG2, 24 h
# [27] = Cytotoxicity against human L02 cells assessed as inhibition of cell growth incubated for 24 hrs by MTT assay; assay type: toxicity, cell-based
# [28] = Antitubulin activity against bovine brain tubulin polymerization preincubated with compound followed by GTP addition by turbidimetry-based spectrophotometric method; design: species or system Bos taurus
# [29] = Cytotoxicity against human skin fibroblast cells incubated for 24 hrs by MTT assay; assay type: toxicity, cell-based
# [30] = system: HCT-15; assay: Anticancer activity against human HCT-15 cells assessed as reduction in cell viability for 72 hrs by MTT assay; assay type: functional, cell-based; settings: HCT-15, 72 h
# [31] = system: K562; assay: Anticancer activity against human K562 cells assessed as reduction in cell viability for 72 hrs by MTT assay; assay type: functional, cell-based; settings: K562, 72 h
# [32] = system: MCF7; assay: Anticancer activity against human MCF7 cells assessed as reduction in cell viability for 72 hrs by MTT assay; assay type: functional, cell-based; settings: MCF7, 72 h
# [33] = Cytotoxicity against human skin fibroblast cells assessed as reduction in cell viability incubated for 72 hrs by MTT assay; assay type: toxicity, cell-based
# [34] = system: SJRH30; assay: Anticancer activity against human Rh30 cells assessed as inhibition of cell proliferation incubated for 72 hrs by SRB assay; assay type: functional, cell-based; settings: SJRH30, 72 h
# [35] = system: MOLT-4; assay: Anticancer activity against human MOLT-4 cells assessed as inhibition of cell proliferation incubated for 72 hrs by SRB assay; assay type: functional, cell-based; settings: MOLT-4, 72 h
# [36] = system: A549; assay: Anticancer activity against human A549 cells assessed as inhibition of cell proliferation incubated for 72 hrs by SRB assay; assay type: functional, cell-based; settings: A549, 72 h
# [37] = system: A549; assay: Anticancer activity against human A549 cells assessed as inhibition of cell growth incubated for 72 hrs by MTT assay; assay type: functional, cell-based; settings: A549, 72 h
# [38] = system: SW872; assay: Anticancer activity against human SW872 cells assessed as inhibition of cell growth incubated for 72 hrs by MTT assay; assay type: functional, cell-based; settings: SW872, 72 h
# [39] = Anticancer activity against human A875 cells assessed as inhibition of cell growth incubated for 72 hrs by MTT assay; assay type: functional, cell-based; settings: A875, 72 h
# [40] = system: MCF7; assay: Antiproliferative activity against human MCF7 cells incubated for 24 hrs by MTT assay; assay type: functional, cell-based; settings: MCF7, 24 h
# [41] = system: HepG2; assay: Antiproliferative activity against human HepG2 cells incubated for 24 hrs by MTT assay; assay type: functional, cell-based; settings: HepG2, 24 h
# [42] = system: B16-F10; assay: Antiproliferative activity against mouse B16-F10 cells incubated for 24 hrs by MTT assay; assay type: functional, cell-based; settings: B16-F10, 24 h
# [43] = system: MDA-MB-231; assay: Antiproliferative activity against human MDA-MB-231 cells incubated for 24 hrs by MTT assay; assay type: functional, cell-based; settings: MDA-MB-231, 24 h
# [44] = Cytotoxicity against African green monkey Vero cells incubated for 24 hrs by MTT assay; assay type: toxicity, cell-based, Chlorocebus sabaeus
# [45] = system: MG-63; assay: Antiproliferative activity against human MG-63 cells incubated for 24 hrs by MTT assay; assay type: functional, cell-based; settings: MG-63, 24 h
# [46] = Cytotoxicity against human L02 incubated for 24 hrs by MTT assay; assay type: toxicity, cell-based; settings: L02 cells
# [47] = Cytotoxicity against human MCF-10A incubated for 24 hrs by MTT assay; assay type: toxicity, cell-based; settings: MCF-10A cells
smiles,measurement,setting,value
CC(C)=CC[C@@H](OC(=O)[C@@H](C)N1C(=O)c2ccccc2C1=O)C1=CC(=O)c2c(O)ccc(O)c2C1=O,IC50,[1],> 100 µM
same,IC50,[2],5.35 µM
same,IC50,[3],2.55 µM
same,IC50,[4],13.3 µM
same,IC50,[5],> 100 µM
same,IC50,[6],1.93 µM
COc1cccc2c1C(=O)c1c(O)c3c(c(O)c1C2=O)C[C@@](O)(C(=O)CO)C[C@@H]3O[C@H]1C[C@H](N)[C@H](O)[C@H](C)O1 [DOXORUBICIN],IC50,[7],4.61 µM
same,IC50,[8],4.21 µM
same,IC50,[9],0.46 µM
same,IC50,[10],0.72 µM
same,IC50,[11],0.57 µM
same,IC50,[12],0.48 µM
same,IC50,[13],5.13 µM
same,IC50 at 48 h,[14],> 100 µM
COc1cccc2c1C(=O)c1c(O)c3c(c(O)c1C2=O)C[C@@](O)(C(=O)CO)C[C@@H]3O[C@H]1C[C@H](N)[C@H](O)[C@H](C)O1.Cl [DOXORUBICIN HYDROCHLORIDE],EC50,[15],1.01 µg/mL
same,IC50,[16],0.57 µM
same,EC50,[17],0.07 µg/mL
same,IC50,[18],0.72 µM
same,T/C,[19],315%
same,IC50,[20],2.01 µM
same,EC50,[21],0.016 µg/mL
same,IC50,[22],0.46 µM
same,IC50,[23],0.48 µM
CC(C)=CC[C@@H](OC(=O)CCCOc1ccc(Cl)cc1C)C1=CC(=O)c2c(O)ccc(O)c2C1=O,IC50,[24],4.44 µM
same,IC50,[25],1.52 µM
same,IC50,[26],0.43 µM
same,IC50 at 24 h,[27],> 100 µM
same,IC50,[28],16.9 µM
CC(C)=CC[C@@H](OC(=O)C(Cc1ccccc1)N1C(=O)c2ccccc2C1=O)C1=CC(=O)c2c(O)ccc(O)c2C1=O (some centres not stated),IC50,[1],> 100 µM
same,IC50,[2],1.69 µM
same,IC50,[3],3.05 µM
same,IC50,[4],> 100 µM
same,IC50,[5],> 100 µM
same,IC50,[6],2.92 µM
CC(C)=CC[C@H](O)C1=CC(=O)c2c(O)ccc(O)c2C1=O [ALKANNIN],IC50 at 24 h,[29],1.8 µM
same,IC50,[30],1.11 µM
same,IC50,[31],1.5 µM
same,IC50,[32],2.62 µM
same,IC50 at 72 h,[33],1.5 µM
CC(C)=CC[C@@H](OC(=O)c1ccco1)C1=CC(=O)c2c(O)ccc(O)c2C1=O,IC50,[34],0.47 µM
same,IC50,[35],0.3 µM
same,IC50,[36],0.46 µM
CC(C)=CC[C@@H](OC(=O)/C=C/c1cccc(C(F)(F)F)c1)C1=CC(=O)c2c(O)ccc(O)c2C1=O,IC50,[37],1.62 µM
same,IC50,[38],0.69 µM
same,IC50,[39],0.65 µM
CCCO/N=C/c1cc(O)c2c(c1O)C(=O)C=CC2=O,EC50,[15],> 10 µg/mL
same,T/C,[19],229%
same,EC50,[21],0.107 µg/mL
CC(=O)O[C@@H]1[C@@H](OC(C)=O)[C@H](Sc2cc(O)c3c(c2O)C(=O)C=C([C@@H](CC=C(C)C)SC2OC[C@@H](OC(C)=O)[C@H](OC(C)=O)[C@H]2OC(C)=O)C3=O)OC[C@H]1OC(C)=O (some centres not stated),IC50,[40],2.37 µM
same,IC50,[41],1.22 µM
same,IC50,[42],4.53 µM
same,IC50,[43],10.6 µM
same,IC50 at 24 h,[44],82.5 µM
same,IC50,[45],1.22 µM
same,IC50 at 24 h,[46],132 µM
same,IC50,[28],4.67 µM
same,IC50 at 24 h,[47],78.1 µM
